The results in this text go back to patent US20050282819A1, “Heterocyclic substituted indane derivatives and related compounds for the treatment of schizophrenia” (priority 2003, published 2005).

Series [1] addresses T1, serotonin 2A (5HT2A) receptor (Homo sapiens, UniProt P28223).
T1 construct: expressed in transfected cells; host or cells: Swiss-h5HT2A cells, membranes
As to the kind of experiment: Serotonin 2A binding ([3H]ketanserin, Swiss-h5HT2A cell membranes). From the text:
(§1) The ability of the compounds of this invention to bind to the dopamine D2 and serotonin 2A (5HT2A) receptors can be determined using conventional radioligand receptor binding assays. All receptors can be heterologously expressed in cell lines and experiments conducted in membrane preparations from the cell lines using procedures outlined below. IC50 concentrations can be determined by nonlinear regression of concentration-dependent reduction in specific binding. The Cheng-Prussoff equation can be used to convert the IC50 to Ki concentrations.
[^3H]Ketanserin binding to Swiss-h5HT2A cell membranes can be carried out in 250 μl of 50 mM Tris-HCl buffer pH 7.4. Duplicate samples containing (in order of addition) test compounds, 1.0 nM [^3H]ketanserin, and approximately 75 μg protein are incubated for 120 minutes at room temperature. Bound radioligand is separated by rapid filtration under reduced pressure through Whatman GF/B glass fiber filters previously treated with 0.3% polyethyleneimine. Radioactivity retained on the filter is determined by liquid scintillation spectrophotometry.

Series [2] addresses T2, dopamine D2 receptor (Homo sapiens, UniProt P14416).
T2 construct: expressed in transfected cells; host or cells: CHO cells (CHO-hD2L), membrane preparation
In words: Dopamine D2 receptor binding ([3H]spiperone, CHO-hD2L membranes).
From the text: as §1
Dopamine D2 Receptor Binding:
[^3H]Spiperone binding to a membrane preparation from CHO-hD2L cells is carried out in 250 μl of 50 mM Tris-HCl buffer containing 100 mM NaCl, 1 mM MgCl2 and 1% DMSO at pH 7.4. Duplicate samples containing (in order of addition) the test compounds, 0.4 nM [^3H]spiperone and approximately 12 μg protein are incubated for 120 minutes at room temperature. Bound radioligand is separated by rapid filtration under reduced pressure through Whatman GF/B glass fiber filters previously treated with 0.3% polyethyleneimine. Radioactivity retained on the filter is determined by liquid scintillation spectrophotometry.
The title compounds of Examples 1-120 were tested using the above assay, in which specific binding determined in the presence of 1 mM haloperidol was 95%.

pKi: −log10 of the molar value.

T1 sequence (P28223 whole entry): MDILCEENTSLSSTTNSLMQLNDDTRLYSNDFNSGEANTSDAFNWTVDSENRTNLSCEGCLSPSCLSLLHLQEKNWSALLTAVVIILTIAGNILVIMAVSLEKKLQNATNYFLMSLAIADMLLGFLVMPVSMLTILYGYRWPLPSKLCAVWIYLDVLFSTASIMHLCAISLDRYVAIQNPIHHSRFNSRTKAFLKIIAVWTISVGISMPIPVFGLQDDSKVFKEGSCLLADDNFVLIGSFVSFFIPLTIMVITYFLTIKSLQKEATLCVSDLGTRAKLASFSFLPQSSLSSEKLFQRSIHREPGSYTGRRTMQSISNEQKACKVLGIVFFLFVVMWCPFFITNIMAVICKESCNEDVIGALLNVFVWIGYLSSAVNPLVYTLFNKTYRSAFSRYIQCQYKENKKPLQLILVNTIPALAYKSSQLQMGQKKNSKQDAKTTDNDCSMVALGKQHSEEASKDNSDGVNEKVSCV
T2 sequence (P14416 whole entry): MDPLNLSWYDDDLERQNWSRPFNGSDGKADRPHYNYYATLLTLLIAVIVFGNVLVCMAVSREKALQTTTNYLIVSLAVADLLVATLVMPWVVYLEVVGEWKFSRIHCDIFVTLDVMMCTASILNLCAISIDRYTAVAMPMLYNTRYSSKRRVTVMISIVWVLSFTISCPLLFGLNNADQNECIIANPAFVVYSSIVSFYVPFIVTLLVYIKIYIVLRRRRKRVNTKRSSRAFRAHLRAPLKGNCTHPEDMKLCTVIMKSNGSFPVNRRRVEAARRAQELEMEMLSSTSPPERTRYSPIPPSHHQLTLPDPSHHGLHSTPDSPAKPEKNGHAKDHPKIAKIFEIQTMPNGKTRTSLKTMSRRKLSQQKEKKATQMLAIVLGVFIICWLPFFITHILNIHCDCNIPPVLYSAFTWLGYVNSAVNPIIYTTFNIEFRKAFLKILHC

As to `CCN(C(C)=O)C1Cc2cc(CCN3CCN(c4nsc5ccccc45)CC3)ccc2C1(C)C.CS(=O)(=O)O` (stereo not shown), the melting point was in the range of 60 to 70 °C.
On the same count and under the same terms, under `CCOC(CN1CCN(c2noc3ccccc23)CC1)c1ccc2c(c1)C(C)(C)C(=O)C2(C)C.CS(=O)(=O)O` (stereo not shown) stands 219 to 222 °C; under `CC1(C)C(=O)C(C)(C)c2cc(CCCN3CCN(c4nsc5ccccc45)CC3)ccc21.CS(=O)(=O)O`, 144 to 147 °C.
The same measure, in the same setting: under `CCN(C(C)=O)C1Cc2ccc(CCN3CCN(c4nsc5ccccc45)CC3)cc2C1(C)C.CS(=O)(=O)O` (stereo not shown) stands 62 to 72 °C.
With `CC1(C)C(=O)C(C)(C)c2cc(CCN3CCN(c4nsc5ccccc45)CC3)ccc21` [Example 82, 5-[2-(4-BENZO[D]ISOTHIAZOL-3-YL-PIPERAZIN-1-YL)-ETHYL]-1,1,3,3-TETRAMETHYL-INDAN-2-ONE], the melting point was in the range of 122 to 126 °C.
Take `CC(=O)N[C@H]1Cc2ccc(CCN3CCN(c4nsc5ccccc45)CC3)cc2C1` [Example 60, (S)(+)-N-{5-[2-(4-BENZO[D]ISOTHIAZOL-3-YL-PIPERAZIN-1-YL)-ETHYL]-INDAN-2-YL}-ACETAMIDE]: the figures for the pKi in series [1] and in series [2] were 10.05 and 8.05, respectively.
For `CC1(C)C(=O)C(C)(C)c2cc(C(F)CN3CCN(c4nsc5ccccc45)CC3)ccc21` (stereo not shown) [Example 78, 5-[2-(4-BENZO[D]ISOTHIAZOL-3-YL-PIPERAZIN-1-YL)-1-FLUORO-ETHYL]-1,1,3,3-TETRAMETHYL-INDAN-2-ONE], the melting point was in the range of 64 to 73 °C.
Same read-out and setting: under `CC(=O)N(C)C1C(C)(C)c2ccc(CCN3CCN(c4nsc5ccccc45)CC3)cc2C1(C)C.CS(=O)(=O)O` (stereo not shown) stands 248 to 250 °C; under `CNC(CN1CCN(c2nsc3ccccc23)CC1)c1ccc2c(c1)C(C)(C)C(O)C2(C)C` (stereo not shown) [Example 85, 5-[2-(4-BENZO[D]ISOTHIAZOL-3-YL-PIPERAZIN-1-YL)-1-METHYLAMINO-ETHYL]-1,1,3,3-TETRAMETHYL-INDAN-2-OL], 96 to 101 °C.
Turning to `CC(=O)NC1C(C)(C)c2ccc(CCN3CCN(c4nsc5ccccc45)CC3)cc2C1(C)C` (stereo not shown) [Example 109, N-{5-[2-(4-BENZO[D]ISOTHIAZOL-3-YL-PIPERAZIN-1-YL)-ETHYL]-1,1,3,3-TETRAMETHYL-INDAN-2-YL}-ACETAMIDE], the melting point fell in the range of 75 to 80 °C.
In turn, `CC(=O)NC1Cc2cc(CCN3CCN(c4nsc5ccccc45)CC3)ccc2C1(C)C` (racemic) [Example 115, N-{5-[2-(4-BENZO[D]ISOTHIAZOL-3-YL-PIPERAZIN-1-YL)-ETHYL]-1,1-DIMETHYL-INDAN-2-YL}-ACETAMIDE] came in with a melting point of 58 to 68 °C.
As to `O=C(Cc1ccoc1)NC1CCc2ccc(CCN3CCN(c4nsc5ccccc45)CC3)cc21` (stereo not shown) [Example 56, N-{6-[2-(4-BENZO[D]ISOTHIAZOL-3-YL-PIPERAZIN-1-YL)-ETHYL]-INDAN-1-YL}-2-FURAN-3-YL-ACETAMIDE], the pKi is 9.26 in series [1] and 8.30 in series [2].
With `CCNC1Cc2cc(CCN3CCN(c4nsc5ccccc45)CC3)ccc2C1(C)C.CS(=O)(=O)O` (stereo not shown), the melting point was 115 to 125 °C (dec.).
In turn, `CC1(C)c2ccc(CCN3CCN(c4nsc5ccccc45)CC3)cc2C(C)(C)C1O` (stereo not shown) [Example 83, 5-[2-(4-BENZO[D]ISOTHIAZOL-3-YL-PIPERAZIN-1-YL)-ETHYL]-1,1,3,3-TETRAMETHYL-INDAN-2-OL] gave a melting point of 47 to 49 °C.
As to `CC(=O)NC1C(C)(C)c2ccc(CCN3CCN(c4noc5ccccc45)CC3)cc2C1(C)C.CS(=O)(=O)O` (stereo not shown), the melting point was in the range of 197 to 205 °C.
The same measure, in the same setting: under `CC(=O)NC1Cc2ccc(CCN3CCN(c4nsc5ccccc45)CC3)cc2C1(C)C` (racemic) stands 62 to 72 °C; under `CC1(C)c2ccc(C(O)CN3CCN(c4n[nH]c5ccccc45)CC3)cc2C(C)(C)C1O` (stereo not shown) [Example 86, 5-{1-HYDROXY-2-[4-(1H-INDAZOL-3-YL)-PIPERAZIN-1-YL]-ETHYL}-1,1,3,3-TETRAMETHYL-INDAN-2-OL], 104 to 110 °C; under `CNC1C(C)(C)c2ccc(CCN3CCN(c4nsc5ccccc45)CC3)cc2C1(C)C.CS(=O)(=O)O` (stereo not shown), 200 to 203 °C (dec.).
Turning to `CC1(C)c2ccc(C(O)CN3CCN(c4nsc5ccccc45)CC3)cc2C(C)(C)C1O` (stereo not shown) [Example 80, 5-[2-(4-BENZO[D]ISOTHIAZOL-3-YL-PIPERAZIN-1-YL)-1-HYDROXY-ETHYL]-1,1,3,3-TETRAMETHYL-INDAN-2-OL], the melting point was 88 to 97 °C.
Take `O=C(NC1CCc2ccc(CCN3CCN(c4nsc5ccccc45)CC3)cc21)c1ccno1` (stereo not shown) [Example 58, ISOXAZOLE-5-CARBOXYLIC ACID {6-[2-(4-BENZO[D]ISOTHIAZOL-3-YL-PIPERAZIN-1-YL)-ETHYL]-INDAN-1-YL}-AMIDE]: the pKi in series [1] was 10.52; in series [2], 8.52.
Turning to `CC1(C)C(=O)C(C)(C)c2cc(CCCN3CCN(c4noc5ccccc45)CC3)ccc21.CS(=O)(=O)O`, the melting point is 200 to 203 °C (dec.).
Same read-out and setting: under `CC1(C)C(=O)C(C)(C)c2cc(C(O)CN3CCN(c4nsc5ccccc45)CC3)ccc21` (stereo not shown) [Example 77, 5-[2-(4-BENZO[D]ISOTHIAZOL-3-YL-PIPERAZIN-1-YL)-1-HYDROXYETHYL]-1,1,3,3-TETRAMETHYL-INDAN-2-ONE] stands 189 to 191 °C; under `CCNC1Cc2ccc(CCN3CCN(c4nsc5ccccc45)CC3)cc2C1(C)C.CS(=O)(=O)O` (stereo not shown), 125 to 135 °C; under `CC1(C)C(=O)C(C)(C)c2cc(CCN3CCN(c4noc5ccccc45)CC3)ccc21.CS(=O)(=O)O`, 259 to 261 °C.
The same measure, in the same setting: under `CC1(C)c2ccc(C(F)CN3CCN(c4nsc5ccccc45)CC3)cc2C(C)(C)C1O` (stereo not shown) [Example 79, 5-[2-(4-BENZO[D]ISOTHIAZOL-3-YL-PIPERAZIN-1-YL)-1-FLUORO-ETHYL]-1,1,3,3-TETRAMETHYL-INDAN-2-OL] stands 49 to 54 °C.

Broadly, the melting point is the temperature, or range, at which the solid turns liquid. For orientation: pKi means the Ki on a negative log10 scale, so that one unit is a factor of ten. Lower therefore signals a large Ki.
